Source: patent publication US9546145B2, “Combination therapy for the treatment of chronic renal failure with an angiotensin II receptor antagonist and beraprost” (Toray Industries, Inc., priority 2003, dated 2017)
Counter-ions that a name gives are not always drawn.

What was measured:
[1] = tested on: WKY rats with nephritis induced by rabbit anti-rat glomerular basement membrane antiserum; assay: nephritis-induced renal failure model in rats, mortality / survival rate; assay type: in vivo; conditions: Example 7, FIG. 2; candesartan cilexetil 10 mg/kg OAD and/or beraprost sodium 100 μg/kg BID; compared with the control group
Description: To 9-week old WKY rats, rabbit anti-rat glomerular basement membrane antiserum was administered to induce nephritis. At two weeks after administering the antiserum, the animals were divided into the following 4 groups and medication was started. • 1) Control Group: 0.5% CMC(OAD)+distilled water (BID), n=11 • 2) Candesartan Group (Comparative Example): candesartan cilexetil 10 mg/kg (OAD)+distilled water (BID), n=11 • 3) BPS Group (Comparative Example): 0.5% CMC(OAD)+beraprost sodium 100 μg/kg (BID), n=11 • 4) Candesartan+BPS Group (this disclosure): candesartan cilexetil 10 mg/kg (OAD)+beraprost sodium 100 μg/kg (BID), n=12

[2] = tested on: glomerular nephritis model in rats; conditions: Kidney Int 1998, 53(5) 1314-20; cited from earlier work
[3] = tested on: patients suffering from diabetic nephropathy; conditions: Nephron 2002, 92(4): 788-96; cited from earlier work
[4] = tested on: WKY rats with nephritis induced by rabbit anti-rat glomerular basement membrane antiserum (renal failure stage); assay: nephritis-induced renal failure model in rats, blood creatinine level; assay type: in vivo; conditions: for effect to suppress the progress of nephritis (raise in the blood creatinine level) / effect to suppress the progress of nephropathy (blood creatinine level): Example 1, FIG. 1; for effect to suppress the progress of nephritis (raise in the blood creatinine level): beraprost sodium 100 μg/kg BID and/or candesartan cilexetil 10 mg/kg OAD; for effect to suppress the progress of nephritis (raise in the blood creatinine level) / effect to suppress the progress of renal failure: compared with the control group; for effect to suppress the progress of nephropathy (blood creatinine level): increased dosage alone: beraprost sodium 300 μg/kg BID or candesartan cilexetil 30 mg/kg OAD, compared with BPS100+candesartan10 group; for blood creatinine level at 7 weeks after induction: started 2 weeks after antiserum
Description: After the start of the medication, blood was collected at one week intervals, and blood creatinine level was measured. To 9-week old WKY rats, rabbit anti-rat glomerular basement membrane antiserum was administered to induce nephritis. […] To 9-week old WKY rats, rabbit anti-rat glomerular basement membrane antiserum was administered to induce nephritis. […] At six weeks after the induction, blood creatinine level was measured to assess the progress of renal failure. […] To 9-week old WKY rats, rabbit anti-rat glomerular basement membrane antiserum was administered to induce nephritis. […] After the start of the medication, blood was collected at one week intervals, and blood creatinine level was measured. The data were plotted taking the reciprocal of the blood creatinine level measured for five weeks after the start of the medication along the ordinate and taking the time along the abscissa, and the slope of the regression line was defined as the rate of progress of renal failure of each animal. To 9-week old WKY rats, rabbit anti-rat glomerular basement membrane antiserum was administered to induce nephritis. […] After the start of the medication, blood was collected at one week intervals, and blood creatinine level was measured. The data were plotted taking the reciprocal of the blood creatinine level measured for five weeks after the start of the medication along the ordinate and taking the time along the abscissa, and the slope of the asymptote was defined as the rate of progress of renal failure of each animal. To 9-week old WKY rats, rabbit anti-rat glomerular basement membrane antiserum was administered to induce nephritis. […] After the start of the medication, blood was collected at one week intervals, and blood creatinine level was measured. The data were plotted taking the reciprocal of the blood creatinine level measured for six weeks after the start of the medication along the ordinate and taking the time along the abscissa, and the slope of the asymptote was defined as the rate of progress of renal failure of each animal.

[5] = tested on: patients suffering from diabetic nephropathy; conditions: N Engl J Med 2001, 345(12): 861-9; cited from earlier work
[6] = tested on: diabetes mellitus model in rats; conditions: each drug individually or in combination, versus control group; Am J Hypertens 1997 10: 202-208; cited from earlier work
[7] = tested on: renal dysfunction induced by uninephrectomy and by loading high sodium and high protein; conditions: Am J Hypertens 1997 10: 209-16; cited from earlier work
[8] = tested on: diabetic nephritis induced by streptozotocin in rats; conditions: J Hypertens Suppl 1993; 11 Suppl 5: S208-9; cited from earlier work
[9] = tested on: anti-Thyl-induced nephritis model; conditions: Am J Pathol 1993; 142(2): 441-50; cited from earlier work
diabetic nephropathy = conditions: compared with blood pressure control by a calcium antagonist; N Engl J Med 2001; 345(12): 851-60; cited from earlier work
[10] = Example 2, during medication, telmisartan 40 mg/kg OAD and/or beraprost sodium 100 μg/kg BID
[11] = Example 2, telmisartan 40 mg/kg OAD and/or beraprost sodium 100 μg/kg BID, mean ± S.E.
[12] = Example 3, losartan 30 mg/kg BID and/or beraprost sodium 100 μg/kg BID
[13] = Example 3, losartan 30 mg/kg BID and/or beraprost sodium 100 μg/kg BID, mean ± S.E.
[14] = Example 4, enalapril maleate 10 mg/kg OAD and/or beraprost sodium 100 μg/kg BID
[15] = Example 4, enalapril maleate 10 mg/kg OAD and/or beraprost sodium 100 μg/kg BID, mean ± S.E.
[16] = Example 4, slope of regression line of reciprocal blood creatinine over five weeks of medication, enalapril maleate 10 mg/kg OAD and/or beraprost sodium 100 μg/kg BID, mean ± S.E.
[17] = Example 5, lisinopril 10 mg/kg OAD and/or beraprost sodium 100 μg/kg BID
[18] = Example 5, lisinopril 10 mg/kg OAD and/or beraprost sodium 100 μg/kg BID, mean ± S.E.
[19] = Example 5, slope of reciprocal blood creatinine over five weeks of medication, lisinopril 10 mg/kg OAD and/or beraprost sodium 100 μg/kg BID, mean ± S.E.
[20] = Example 6, perindopril erbumine 10 mg/kg OAD and/or beraprost sodium 100 μg/kg BID
[21] = Example 6, slope of reciprocal blood creatinine over six weeks of medication, perindopril erbumine 10 mg/kg OAD and/or beraprost sodium 100 μg/kg BID

CC#CCC(C)[C@H](O)/C=C/[C@@H]1[C@H]2c3cccc(CCCC(=O)[O-])c3O[C@H]2C[C@H]1O.[Na+] (stereo partly drawn) [BPS, beraprost sodium]
mortality rate / survival rate [1]: no difference | urinary protein [2]: decreases urinary protein | urinary protein [3]: decreases urinary protein | effect to suppress the progress of nephritis (raise in the blood creatinine level) [4]: almost no difference | effect to suppress the progress of nephropathy (blood creatinine level) [4]: smaller than that observed in BPS100+candesartan10 group | effect to suppress the progress of renal failure [4, 10]: almost no difference | blood creatinine level at 7 weeks after induction [4, 11]: 1.56 ± 0.76 mg/dL | effect to suppress the progress of renal failure [4, 12]: no difference | blood creatinine level at 6 weeks after induction [4, 13]: 0.93 ± 0.18 mg/dL | effect to suppress the progress of renal failure [4, 14]: no difference | blood creatinine level at 6 weeks after induction [4, 15]: 0.93 ± 0.18 mg/dL | rate of progress of renal failure [4, 16]: 0.32 ± 0.04 dL/mg × week | effect to suppress the progress of renal failure [4, 17]: almost no difference | blood creatinine level at 6 weeks after induction [4, 18]: 1.49 ± 0.59 mg/dL | rate of progress of renal failure [4, 19]: 0.37 ± 0.07 dL/mg × week | blood creatinine level at 6 weeks after induction [4, 20]: 0.93 ± 0.18 mg/dL | effect to suppress the progress of renal failure [4, 20]: tendency to suppress the progress of renal failure | rate of progress of renal failure [4, 21]: 0.29 ± 0.03 dL/mg × week

CCOC(=O)[C@H](CCc1ccccc1)N[C@@H](C)C(=O)N1CCC[C@H]1C(=O)O [Enalapril, enalapril maleate]
effect to suppress the progress of renal failure [4, 14]: no difference | blood creatinine level at 6 weeks after induction [4, 15]: 1.83 ± 0.44 mg/dL | rate of progress of renal failure [4, 16]: 0.41 ± 0.04 dL/mg × week

NCCCC[C@H](N[C@@H](CCc1ccccc1)C(=O)O)C(=O)N1CCC[C@H]1C(=O)O [Lisinopril, lisinopril]
effect to suppress the progress of renal failure [4, 17]: almost no difference | blood creatinine level at 6 weeks after induction [4, 18]: 1.20 ± 0.34 mg/dL | rate of progress of renal failure [4, 19]: 0.39 ± 0.08 dL/mg × week

CCCCc1nc(Cl)c(CO)n1Cc1ccc(-c2ccccc2-c2nn[nH]n2)cc1 [Losartan, losartan]
effect to suppress the progress of renal failure [4, 12]: no difference | blood creatinine level at 6 weeks after induction [4, 13]: 1.94 ± 0.61 mg/dL | risk-lowering rate (doubling time of creatinine, dialysis, complicated risk of death) [5]: 16.1%

CCC[C@H](N[C@@H](C)C(=O)N1[C@H](C(=O)O)C[C@@H]2CCCC[C@@H]21)C(=O)OCC [Perindopril, perindopril erbumine]
blood creatinine level at 6 weeks after induction [4, 20]: 1.09 ± 0.42 mg/dL | effect to suppress the progress of renal failure [4, 20]: tendency to suppress the progress of renal failure | rate of progress of renal failure [4, 21]: 0.30 ± 0.05 dL/mg × week

CCCc1nc2c(C)cc(-c3nc4ccccc4n3C)cc2n1Cc1ccc(-c2ccccc2C(=O)O)cc1 [Telmisartan, telmisartan]
effect to suppress the progress of renal failure [4, 10]: suppressed | blood creatinine level at 7 weeks after induction [4, 11]: 0.93 ± 0.43 mg/dL | blood creatinine level at 8 weeks after induction (1 week after the end of the medication) [4, 11]: 1.18 ± 0.80 mg/dL | progress of renal failure / blood creatinine level at one week after the end of the medication ([4]; Example 2, telmisartan 40 mg/kg OAD with or without beraprost sodium 100 μg/kg BID): renal failure was progressed

CCOc1nc2cccc(C(=O)OC(C)OC(=O)OC3CCCCC3)c2n1Cc1ccc(-c2ccccc2-c2nn[nH]n2)cc1 (stereo not drawn) [candesartan, candesartan cilexetil]
mortality rate / survival rate [1]: no difference | effect to suppress the progress of nephritis (raise in the blood creatinine level) [4]: almost no difference | effect to suppress the progress of nephropathy (blood creatinine level) [4]: smaller than that observed in BPS100+candesartan10 group

CCC#CC[C@H](C)[C@H](O)C#C[C@@H]1[C@H]2C/C(=C/COCC(=O)O)C[C@H]2C[C@H]1O [cicaprost]
renal function parameters such as urinary protein, damage of renal tissue [6]: less severe | suppression of renal dysfunction [7]: suppressed | suppression of diabetic nephritis [8]: suppressed

CC#CCC(C)[C@H](O)/C=C/[C@@H]1[C@H]2C/C(=C/CCCC(=O)O)C[C@H]2C[C@H]1O (stereo partly drawn) [iloprost]
urinary protein [9]: decreased urinary protein

CCCCC1=NC2(CCCC2)C(=O)N1Cc1ccc(-c2ccccc2-c2nnn[nH]2)cc1 [irbesartan]
effect of suppressing the progress of diabetic nephropathy (diabetic nephropathy): superior
